From PubChem BioAssay AID1159564 (GlaxoSmithKline (GSK), 2015)
Activity calls are given as the source filed them. No rule for the calls is given here.

Tested on: L. donovani-infected THP-1 macrophages, intracellular amastigote imaging
Assay: intracellular L. donovani amastigote inhibition, imaging, THP-1 host macrophages, host toxicity (AID 1159564)
[1] = measured here: THP-1 host cell toxicity
[2] = measured here: amastigotes per macrophage

Compound | IC50 | IC50 [1] [µM] | IC50 [2] [µM]
CC(=O)Nc1ccc(Nc2nccc(-c3cnn4ncccc34)n2)cc1C(F)(F)F | 0.025 µM | 0.01 | 0.016
CN(Cc1cc2ccccc2s1)c1ncc2c(N)nc(N)nc2n1 | 32 µM | 25 | 25
c1ccc(CNc2cccc3ccncc23)cc1 | 7.9 µM | 50 | 5
CC(=O)Nc1ccc(-c2noc(CC3CCCN(Cc4cccc(F)c4C)C3)n2)cc1 (centres undefined) | 32 µM | > 50 | 13
Cc1cc(Nc2cc(C3CC3)[nH]n2)nc(N2CCCC2)n1 | 0.16 µM | 0.13 | 0.05
Cc1[nH]nc(-c2nc3ccccc3[nH]2)c1C(=O)NC1CCCNC1 (centres undefined) | 6.3 µM | 1.6 | 6.3
CNC(=O)C1Cc2ccccc2N1C(=O)Cc1ccccc1 (centres undefined) | > 50 µM (inactive) | > 50 | > 50
COc1cccc(CCNC(=O)C(c2cn[nH]c2)N2CCN(c3ccc(Cl)cc3)CC2)c1 (centres undefined) | 20 µM | 25 | 10
CNc1nc(C)nc(N2CCc3cc(C(=O)NCc4ccc(-c5nccn5C)cc4Cl)ccc32)n1 | 0.79 µM | 25 | 0.79
COc1ccccc1C1CC(c2ccc(NS(C)(=O)=O)cc2)=NN1C(=O)c1cccs1 (centres undefined) | 4 µM | > 50 | 2.5
CC(C)(C)CC(=O)NCCc1csc(-c2ccc(F)cc2)n1 | 32 µM | 16 | 16
COc1ccc(NS(=O)(=O)c2cc(-c3cc(C)[nH]n3)ccc2C)cc1OC | 10 µM | > 50 | 7.9
c1cncc(CN(Cc2ccco2)Cc2cn[nH]c2-c2cccs2)c1 | > 50 µM (inactive) | 20 | 1.3
COc1ccc(C(C)(C)C)cc1S(=O)(=O)n1ccnc1 | > 50 µM (inactive) | > 50 | 25
O=S(=O)(c1ccccc1C(F)(F)F)N1CCN(Cc2ccc(-n3ccnc3)cc2)CC1 | > 50 µM (inactive) | 16 | 25
Cn1cncc1CN1CCC2(CC1)COC(Cc1ccccc1)C2 (centres undefined) | > 50 µM (inactive) | > 50 | –
O=C(NCCc1nc(-c2ccc(F)c(F)c2)n[nH]1)C1CCCCC1 | > 50 µM (inactive) | 20 | 16
Cc1sc(C)c(C(F)(F)F)c1CNCCCNc1cc(=O)c2ccccc2[nH]1 | 50 µM | 32 | 25

Compound | IC50 | IC50 [1] [µM] | IC50 [2] [µM]
COc1ccc(Nc2nccc(N(C)c3n[nH]c4c(F)cccc34)n2)cc1S(C)(=O)=O | 2.5 µM | 10 | 1
CCOc1ccc(NC(=O)C=Cc2ccc(CC)o2)cc1 | 50 µM | 20 | 25
COc1ccc(Oc2ccc(C(C)N(C)c3ncc4c(N)nc(N)nc4n3)cc2)cc1 (centres undefined) | 0.1 µM | 16 | 0.05
N#Cc1cccc(CN2CCC(N(Cc3cccnc3)C(=O)c3cc(F)c(F)cc3F)CC2)c1 | > 50 µM (inactive) | > 50 | 13
O=c1cc(NCCCNC2CCOc3c(I)cc(Cl)cc32)[nH]c2ccccc12 (centres undefined) | 20 µM | 20 | 13
CNc1cc(Cn2c(C(=O)c3cc(C)cc(Cl)c3)c(C(C)C)c(=O)[nH]c2=O)ccn1 | 20 µM | > 50 | 13
CCS(=O)(=O)Nc1ccc(C2=NN(C(=O)c3cccs3)C(c3ccccc3OC)C2)cc1 (centres undefined) | 7.9 µM | > 50 | 7.9
Cn1nc(-c2ccc(NC(=O)Cc3ccccc3Cl)cc2)c2c(N)ncnc21 | > 50 µM (inactive) | > 50 | > 50
Cc1cc(N2CCc3ccccc3C2)nc(Nc2ccc(S(=O)(=O)N3CCOCC3)cc2)n1 | 5 µM | 25 | 1.6
COc1cc(-c2noc(CC#N)n2)ccc1OC(F)F | > 50 µM (inactive) | 50 | > 50
COc1ccc(-c2csc(NC(=O)c3ccc([N+](=O)[O-])s3)n2)cc1 | 4 µM | > 50 | 1.6
COc1cc2c(cc1OC)[C@H]1[C@@H](C)c3ccc(OC)c(OC)c3CN1CC2 | 20 µM | > 50 | 16
Cc1ccc(NC(=O)C(C)n2nc([N+](=O)[O-])c(Br)c2C)cc1Cl (centres undefined) | > 50 µM (inactive) | > 50 | > 50
N#Cc1cc(-c2ccnc(Nc3cccc(CN4CCOCC4)c3)n2)ccc1NCCN | 1.6 µM | 7.9 | 0.79
O=C(NCCc1csc(-c2ccc(F)cc2)n1)c1ccco1 | > 50 µM (inactive) | > 50 | > 50
CC1CCCN(S(=O)(=O)c2ccc(C(=O)Nc3nc(-c4ccccn4)cs3)cc2)C1 (centres undefined) | 0.25 µM | 5 | 0.16
O=c1cc(CSc2ccc(Cl)cc2)nc(-c2ccccn2)[nH]1 | 5 µM | 4 | 2
